US8410288B2, “Polymorphs of Saxagliptin hydrochloride and processes for preparing them” (Teva Pharmaceutical Industries Ltd., priority 2010, dated 2013)
Where a name gives a salt, the structure may show the parent alone. One block for each compound: values may come before it.

Experiments:
Format in all cases: physicochemical
[1] = Particle morphology (SEM), filterability and powder flowability; settings: small plate to rod-shaped particles
From the text: Equipment: Jeol JSM-5800 scanning microscope, Sputtered with gold by Edwards S150 sputter coater

[2] = Tapped density measurement; settings: 450 mg sample; for tapped density: 10 ml graduated cylinder, tapped 200 times; for volume of sample after tapping: 10 ml measuring flask, tapped 200 times with equal force
Procedure: Samples were tapped the same number of times (200 times) with equal force. Volume of each sample was recorded: (1.4 ml for Form K; 1.6 ml for H2-1).

[3] = Solubility measurement (time to clear solution in distilled water); settings: compared to other solid state forms of Saxagliptin hydrochloride
Procedure: Equal mass of samples was suspended in equal volume of distilled water. Suspensions were slightly mixed, time was recorded at the moment of clear solution appearance.

SMILES: N#C[C@@H]1C[C@@H]2C[C@@H]2N1C(=O)[C@@H](N)C12CC3CC(CC(O)(C3)C1)C2 [form D, Saxagliptin hydrochloride]
filterability and powder flowability [1]: good filterability and powder flowability properties

tapped density ([2]; hydrochloride): about 0.32 g/ml | volume of sample after tapping ([2]; hydrochloride): 1.4 mL
SMILES: N#C[C@@H]1C[C@@H]2C[C@@H]2N1C(=O)[C@@H](N)C12CC3CC(CC(O)(C3)C1)C2 [form K, Saxagliptin hydrochloride]

dissolution rate [3]: high dissolution rate
SMILES: N#C[C@@H]1C[C@@H]2C[C@@H]2N1C(=O)[C@@H](N)C12CC3CC(CC(O)(C3)C1)C2 [form Z, Saxagliptin hydrochloride]

tapped density ([2]; hydrochloride dihydrate): about 0.28 g/ml | volume of sample after tapping ([2]; hydrochloride dihydrate): 1.6 mL
SMILES: N#C[C@@H]1C[C@@H]2C[C@@H]2N1C(=O)[C@@H](N)C12CC3CC(CC(O)(C3)C1)C2 [form H2-1, Saxagliptin hydrochloride dihydrate, reference compound]
